≈ marks a conversion by molar mass, not a printed value.
How the values were obtained:
Assay in all cases: ≥ marks a high value that may be exact or a test limit, other limits are often not marked, values filed in µg/mL are converted to µM
[1] = system: Candida albicans NCTC 3179
[2] = system: Staphylococcus aureus ATCC 25923
[3] = system: Escherichia coli ATCC 25922
Escherichia coli BL21 = system: Escherichia coli BL21
[4] = system: Xanthomonas axonopodis pv. phaseoli ATCC 9563
[5] = system: Streptococcus pyogenes GAS M1T1
[6] = system: Pseudomonas aeruginosa PAO1
Pseudomonas syringae = system: Pseudomonas syringae
[7] = system: Salmonella typhimurium ATCC 7731
[8] = system: Staphylococcus aureus ATCC 29213
[9] = system: Pseudomonas aeruginosa ATCC 27853
[10] = system: Salmonella enterica subsp. enterica serovar Pullorum C79-13
[11] = system: Staphylococcus epidermidis ATCC 12228
Escherichia coli UB1005 = system: Escherichia coli UB1005
[12] = system: Enterococcus faecalis ATCC 29212
[13] = system: Bacillus subtilis CMCC 63501
[14] = system: Staphylococcus aureus ATCC 43300
Escherichia coli K88 = system: Escherichia coli K88
[15] = system: Salmonella enterica subsp. enterica serovar Choleraesuis CVCC 503
[16] = system: Lacticaseibacillus rhamnosus 1.0936
[17] = system: Lacticaseibacillus rhamnosus 1.0911
[18] = system: Escherichia coli O157:H7 CICC 21530
[19] = system: Streptococcus agalactiae BNCC 185941
[20] = system: Salmonella enterica subsp. enterica serovar Typhimurium ATCC 14028
[21] = system: Lacticaseibacillus rhamnosus 1.9021
[22] = system: Lacticaseibacillus rhamnosus 8014
[23] = system: Candida parapsilosis CGMCC 2.3989
Escherichia coli 1005 = system: Escherichia coli 1005
[24] = system: Salmonella enterica subsp. enterica serovar Pullorum ATCC 7913
[25] = system: Candida tropicalis CGMCC 2.1975
Candida albicans = system: Candida albicans
[26] = system: Candida krusei CGMCC 2.1857

`CC[C@H](C)[C@H](NC(=O)[C@@H](NC(=O)[C@H](Cc1ccccc1)NC(=O)CNC(=O)[C@@H](NC(=O)[C@H](CC(N)=O)NC(=O)[C@H](C)N)C(C)C)C(C)C)C(=O)N[C@@H](CCC(N)=O)C(=O)N[C@@H](CC(C)C)C(=O)N[C@@H](CCC(N)=O)C(=O)N[C@@H](C)C(=O)N[C@@H](CCCN=C(N)N)C(=O)N[C@@H](CC(C)C)C(=O)N[C@@H](CCCN=C(N)N)C(=O)NCC(=O)N[C@@H](Cc1ccccc1)C(=O)N[C@@H](CC(C)C)C(=O)N[C@H](C(=O)N[C@@H](CCCN=C(N)N)C(=O)N[C@@H](CCC(N)=O)C(=O)N[C@@H](CCCCN)C(=O)N[C@@H](Cc1ccccc1)C(=O)N[C@@H](C)C(=O)O)C(C)C` [ANVGFVIQLQARLRGFLVRQKFA] showed an MIC [1] of at least 95 µM, an MIC [2] of 1.71 µM (≈ 4.5 µg/mL) and an MIC [3] of 1.71 µM (≈ 4.5 µg/mL).

`CC[C@H](C)[C@H](NC(=O)[C@H](CCCCN)NC(=O)[C@H](CC(N)=O)NC(=O)[C@H](CCCCN)NC(=O)[C@H](CC(C)C)NC(=O)[C@H](Cc1ccc(O)cc1)NC(=O)[C@H](CCC(N)=O)NC(=O)[C@H](CCCN=C(N)N)NC(=O)[C@@H](NC(=O)[C@@H](NC(=O)[C@H](CCCCN)NC(=O)[C@H](CCCCN)NC(=O)[C@H](Cc1c[nH]c2ccccc12)NC(=O)[C@H](C)N)[C@@H](C)O)[C@@H](C)CC)C(=O)N[C@@H](CCCCN)C(=O)N[C@@H](CCCCN)C(=O)N[C@@H](CCCCN)C(=O)NCC(=O)N[C@@H](CCCN=C(N)N)C(=O)N[C@@H](CCCCN)C(=O)N[C@@H](C)C(=O)N[C@H](C(=O)N[C@H](C(=O)N[C@@H](C)C(=O)N[C@@H](Cc1c[nH]c2ccccc12)C(=O)O)[C@@H](C)CC)C(C)C` [AWKKTIRQYLKNKIKKKGRKAVIAW] was tested, and the MIC (Escherichia coli BL21) was 8 µM (≈ 24.5 µg/mL), the MIC [4] was 1 µM (≈ 3.06 µg/mL) and the MIC [5] was 8 µM (≈ 24.5 µg/mL). For the same molecule, the MIC [6] was 10 µM (≈ 30.6 µg/mL) and the MIC (Pseudomonas syringae) was 8 µM (≈ 24.5 µg/mL).

`CC[C@H](C)[C@H](NC(=O)[C@H](CCCCN)NC(=O)[C@H](CC(N)=O)NC(=O)[C@H](CCCCN)NC(=O)[C@H](CC(C)C)NC(=O)[C@H](Cc1ccc(O)cc1)NC(=O)[C@H](CCC(N)=O)NC(=O)[C@H](CCCN=C(N)N)NC(=O)[C@@H](NC(=O)[C@@H](NC(=O)[C@H](CCCCN)NC(=O)[C@H](CCCCN)NC(=O)[C@H](Cc1c[nH]c2ccccc12)NC(=O)[C@H](C)N)[C@@H](C)O)[C@@H](C)CC)C(=O)N[C@@H](CCCCN)C(=O)N[C@@H](CCCCN)C(=O)N[C@@H](CCCCN)C(=O)N[C@@H](Cc1c[nH]c2ccccc12)C(=O)N[C@@H](CCCN=C(N)N)C(=O)N[C@@H](CCCCN)C(=O)N[C@@H](C)C(=O)N[C@H](C(=O)N[C@H](C(=O)N[C@@H](C)C(=O)N[C@@H](Cc1c[nH]c2ccccc12)C(=O)O)[C@@H](C)CC)C(C)C` [AWKKTIRQYLKNKIKKKWRKAVIAW] was tested, and the MIC (Escherichia coli BL21) was 4 µM (≈ 12.7 µg/mL), the MIC [4] was 1 µM (≈ 3.19 µg/mL) and the MIC [5] was 8 µM (≈ 25.5 µg/mL). For the same molecule, the MIC (Pseudomonas syringae) was 8 µM (≈ 25.5 µg/mL).

With `CC[C@H](C)[C@H](N)C(=O)N[C@@H](Cc1cnc[nH]1)C(=O)N[C@@H](CCCCN)C(=O)N[C@@H](Cc1ccccc1)C(=O)N[C@@H](Cc1c[nH]c2ccccc12)C(=O)N[C@@H](CCCN=C(N)N)C(=O)N[C@@H](CCCN=C(N)N)C(=O)N[C@@H](Cc1c[nH]c2ccccc12)C(=O)N[C@@H](Cc1ccccc1)C(=O)N[C@@H](CCCCN)C(=O)N[C@@H](Cc1cnc[nH]1)C(=O)N[C@H](C(N)=O)[C@@H](C)CC` [IHKFWRRWFKHI] the MIC [7] was 16 µM (≈ 28.1 µg/mL), the MIC [8] was 8 µM (≈ 14 µg/mL) and the MIC [9] was 16 µM (≈ 28.1 µg/mL). For the same molecule, the MIC [10] was 16 µM (≈ 28.1 µg/mL), the MIC [3] was 16 µM (≈ 28.1 µg/mL) and the MIC [11] was 16 µM (≈ 28.1 µg/mL). For the same molecule, the MIC (Escherichia coli UB1005) was 8 µM (≈ 14 µg/mL), the MIC [12] was 16 µM (≈ 28.1 µg/mL) and the MIC [13] was at least 32 µM. It also gave an MIC [14] of 16 µM (≈ 28.1 µg/mL).

`CC(C)C[C@H](NC(=O)[C@H](Cc1c[nH]c2ccccc12)NC(=O)[C@H](CC(C)C)NC(=O)[C@@H](NC(=O)[C@H](CC(C)C)NC(=O)[C@H](CCCCN)NC(=O)[C@@H](N)CCCCN)[C@@H](C)O)C(=O)N[C@H](C(=O)N[C@@H](CC(C)C)C(=O)N[C@@H](CCCCN)C(=O)N[C@@H](CCCCN)C(N)=O)[C@@H](C)O` [KKLTLWLTLKK] was tested, and the MIC (Escherichia coli K88) was 2 µM (≈ 2.74 µg/mL), the MIC [15] was 8 µM (≈ 11 µg/mL) and the MIC [16] was at least 32 µM. The MIC [8] was 32 µM (≈ 43.9 µg/mL), the MIC [17] was 16 µM (≈ 21.9 µg/mL) and the MIC [9] was 8 µM (≈ 11 µg/mL). The MIC [10] was 2 µM (≈ 2.74 µg/mL), the MIC [18] was 8 µM (≈ 11 µg/mL) and the MIC [11] was 32 µM (≈ 43.9 µg/mL). The MIC [19] was at least 128 µM, the MIC [20] was 128 µM (≈ 175 µg/mL) and the MIC [6] was 16 µM (≈ 21.9 µg/mL). For the same molecule, the MIC [21] was at least 32 µM, the MIC [14] was 32 µM (≈ 43.9 µg/mL) and the MIC [22] was at least 128 µM.

`CC[C@H](C)[C@H](NC(=O)[C@H](CCCCN)NC(=O)[C@@H](NC(=O)[C@@H](NC(=O)[C@H](CO)NC(=O)[C@H](CC(N)=O)NC(=O)[C@@H](NC(=O)[C@H](CC(N)=O)NC(=O)[C@@H](N)CCCCN)C(C)C)[C@@H](C)CC)C(C)C)C(=O)N[C@@H](CCC(N)=O)C(=O)N[C@@H](C)C(=O)N[C@@H](Cc1ccccc1)C(=O)N[C@@H](Cc1ccccc1)C(=O)N[C@@H](CCCN=C(N)N)C(=O)N[C@@H](C)C(=O)N[C@@H](CCCN=C(N)N)C(=O)N[C@@H](CCCCN)C(=O)N[C@@H](C)C(=O)N[C@@H](CCC(N)=O)C(=O)N[C@@H](CC(=O)O)C(=O)N[C@@H](CC(=O)O)C(=O)N[C@@H](Cc1ccc(O)cc1)C(=O)N[C@@H](CCCN=C(N)N)C(=O)O` [KNVNSIVKIQAFFRARKAQDDYR] gave an MIC [1] of 30.3 µM (≈ 84 µg/mL), an MIC [2] of 4.7 µM (≈ 13 µg/mL) and an MIC [3] of 3.54 µM (≈ 9.8 µg/mL).

In the case of `NC(=O)[C@H](CCCN=C(N)N)NC(=O)[C@H](Cc1ccccc1)NC(=O)[C@H](Cc1ccccc1)NC(=O)[C@H](CCCN=C(N)N)NC(=O)[C@H](CCCN=C(N)N)NC(=O)[C@H](Cc1ccccc1)NC(=O)[C@H](CCCN=C(N)N)NC(=O)[C@H](CCCN=C(N)N)NC(=O)[C@H](Cc1ccccc1)NC(=O)[C@H](Cc1ccccc1)NC(=O)[C@@H](N)CCCN=C(N)N` [RFFRRFRRFFR], the MIC [23] is reported as at least 64 µM, the MIC [8] is reported as 8 µM (≈ 13.5 µg/mL) and the MIC [2] is reported as 4 µM (≈ 6.76 µg/mL). For the same molecule, the MIC (Escherichia coli 1005) was 8 µM (≈ 13.5 µg/mL), the MIC [24] was 4 µM (≈ 6.76 µg/mL) and the MIC [25] was 2 µM (≈ 3.38 µg/mL). It also gave an MIC (Candida albicans) of 5.66 µM (≈ 9.56 µg/mL), an MIC [26] of 2 µM (≈ 3.38 µg/mL) and an MIC [11] of 4 µM (≈ 6.76 µg/mL). For the same molecule, the MIC [20] was 4 µM (≈ 6.76 µg/mL) and the MIC [14] was 4 µM (≈ 6.76 µg/mL).

For `CC(C)C[C@H](NC(=O)[C@H](CC(C)C)NC(=O)[C@H](CCCN=C(N)N)NC(=O)[C@H](CCCN=C(N)N)NC(=O)[C@H](CC(C)C)NC(=O)[C@H](CCCN=C(N)N)NC(=O)[C@H](CCCN=C(N)N)NC(=O)[C@H](CC(C)C)NC(=O)[C@H](CC(C)C)NC(=O)[C@@H](N)CCCN=C(N)N)C(=O)N[C@@H](CCCN=C(N)N)C(N)=O` [RLLRRLRRLLR], the MIC [23] was 8 µM (≈ 12.2 µg/mL), the MIC [8] was 4 µM (≈ 6.08 µg/mL) and the MIC [2] was 8 µM (≈ 12.2 µg/mL). The MIC (Escherichia coli 1005) was 4 µM (≈ 6.08 µg/mL), the MIC [24] was 8 µM (≈ 12.2 µg/mL) and the MIC [25] was 2 µM (≈ 3.04 µg/mL). For the same molecule, the MIC (Candida albicans) was 5.66 µM (≈ 8.6 µg/mL), the MIC [26] was 4 µM (≈ 6.08 µg/mL) and the MIC [11] was 4 µM (≈ 6.08 µg/mL). For the same molecule, the MIC [20] was 8 µM (≈ 12.2 µg/mL) and the MIC [14] was 8 µM (≈ 12.2 µg/mL).
